Counter-ions that a name gives are not always drawn.
Experiments:
[1] = test system: phosphorylation of JNK protein, a representative sub-regulatory marker of SARM1; conditions: MKN1 cells, Western blot, Hsp90 as housekeeping protein
Protocol: Accordingly, in order to evaluate the axonal degeneration inhibitory effects of the compounds according to the present invention, the abilities of these compounds to inhibit SARM1 enzyme were analyzed. Specifically, whether phosphorylation of JNK protein, a representative sub-regulatory marker of SARM1, decreased, was evaluated by Western blot assay. A method for preparing the protein used in the Western blot assay is as follows. […] The entire cell lysate was fractionated using a centrifuge, and then only the solution containing the protein was extracted. The extracted protein was quantified by the Bradford method. The protein of the same concentration obtained through quantification was separated by SDS-polyacrylamide gel electrophoresis, and then transferred to a PVDF membrane. […] For visualization, an enhanced chemiluminescence system was used. Western blot assay was performed using JNK protein, a representative marker whose phosphorylation is regulated by SARM1, and the housekeeping protein Hsp90 was used for quantitative comparison of expression.

[2] = test system: retinal ganglion cell axons; assay: Tadpole optic nerve axotomy model, axon survival score (Experimental Example 4); assay type: in vivo, Xenopus tropicalis; conditions: axotomy at stage 43, evaluated 48 hours after axotomy, control DMSO
Protocol: In order to verify the axon protective effect of the compound according to the present invention in the tadpole optic nerve axotomy model, an experiment was conducted in the same manner as in Experimental Example 3. Specifically, GFP-expressing DNA was delivered into one retina of a Xenopus tropicalis tadpole at stage 27 (before retinal development) by electroporation. At stage 43 (the time when the connection between the retina and the visual center of the brain is finished), axons of the epectroporated retina were axotomized, and the tissue was fixed at 24-hour intervals, followed by extraction of the brain. Next, the ventral midline of the brain was excised and unfolded, and then the GFP signal in the contra-lateral brain hemisphere was imaged with a confocal microscope (LSM700, Carl Zeiss, 20×, z-step 3 μm). Thereby, it was possible to observe retinal ganglion cell axons located along the optic tract extending from the optic chiasm to the optic tectum. […] Axonal degeneration could be quantified because the continuous GFP signal disappeared along the optic tract over time after axotomy. […] The degree of inhibition of axonal degeneration by the drug was evaluated 48 hours after axotomy. […] The percentage of healthy axons in the drug group relative to the control group taken as 100% was calculated and used as the axon survival score (0 to 100%).

[3] = test system: axonal degeneration; conditions: cited from earlier work
[4] = test system: optic nerve axons; assay: Tadpole optic nerve axotomy model, delay in Wallerian degeneration (Experimental Example 3); assay type: in vivo, Xenopus tropicalis; conditions: optic nerve axotomized at stage 41, 48 hours after treatment
Protocol: In order to verify the axon protective effect of the compound according to the present invention in the tadpole optic nerve axotomy model, an experiment was conducted according to the design shown in FIG. 13. Specifically, an in vitro fertilized Xenopus tropicalis (African frog) embryo (Nasco, Fort Atkinson, Wis. 53538, USA) is cultured to stage 27, and then a plasmid DNA expressing Enhanced Green Fluorescence Protein (EGFP) is delivered into the retinal progenitor cells of one eye by an electroporation technique. After culturing to stage 41, the axons of the retinal ganglion cells expressing the green fluorescent protein reach the optic tectum of the contralateral brain hemisphere, and this axon bundle is referred to as the optic nerve. When the optic nerve is axotomized at stage 41, Wallerian degeneration occurs in which axons distal from the cell body degenerate by fragmentation over about 72 hours. […] Wallerian degeneration of the Xenopus optic nerve occur in a stereotypical pattern at 24 hours, 48 hours and 72 hours after axotomy, and the degree of delay in Wallerian degeneration was quantified as percentage by comparing the degree of Wallerian degeneration in the drug-treated group with this pattern.

O=C(NCc1ccc(-c2nc3ccc(Cl)cc3o2)cc1)c1cccnc1 [A4266, N-(4-(6-chlorobenzo[d]oxazol-2-yl)benzyl)nicotinamide]
JNK phosphorylation [1]: had the effect of inhibiting JNK phosphorylation

CS(=O)(=O)c1ccc2oc(-c3ccc(CNC(=O)c4cccnc4)cc3)nc2c1 [A4510H, N-(4-(5-(methylsulfonyl)benzo[d]oxazol-2-yl)benzyl)nicotinamide hydrochloride]
axon protective effect (axon survival score) [2]: exhibited an excellent axon protective effect

O=C(/C=C/c1cccnc1)NCCCCC1CCN(C(=O)c2ccccc2)CC1 [FK866]
axonal degeneration [3]: effect of partially inhibiting axonal degeneration

Nc1ccc(/C=C/C(=O)NCc2cc3cc(-c4ccc(C(=O)N5CCC(F)(F)CC5)cc4)cc(-c4ccc(F)cc4)c3o2)cn1 [KPT9274]
axon protective effect (degree of delay in Wallerian degeneration) [4]: did not exhibit a significant axon protective effect

CC(C)(O)CS(=O)(=O)Nc1ccc2c(c1)CCN(C(=O)COc1cccnc1)C2 [LSN 3154567]
axon protective effect (degree of delay in Wallerian degeneration) [4]: did not exhibit a significant axon protective effect

From patent US20230010258A1, “COMPOSITION FOR PREVENTING OR INHIBITING AXONAL DEGENERATION” (CHECKMATE THERAPEUTICS INC., priority 2019, published 2023)
